Data set [1] has as its system leukemia (bone marrow myeloblast and promyelocyte). Description: Clinical treatment of leukemia patients with TPA. In kind it is in vivo, humans.
For data set [2], the system named is S180 (Sarcoma 180) tumor cells. Description: Tumor growth inhibition in mice injected with S180 (Sarcoma 180) tumor cells. In kind it is in vivo, Kwen-Ming mice. As for the experimental part:
Effect of TPA in Mice Injected With S180 (Sarcoma 180) Tumor Cells:
Eight groups of Kwen-Ming mice containing 7 mice per group were used in the following experiment. Two groups were untreated and six groups received the drug.
Each Kwen-Ming mouse was injected with 5×10^6 S180 cells at the under-arm position. After 24 or 72 h, the animals were given TPA i.p. or locally at the tumor site. The injected doses of TPA were 50, 100 and 200 μg/kg/d for 7 days. The animals were sacrificed 24 hrs after the final TPA treatment and the tumors were weighed to calculate the extent of the tumor growth inhibition.

For data set [3], the system named is mouse skin. The following applies: cited from earlier work.
[4] abbreviates: subject 8, AML-M3, retinoic acid failed.
[5] abbreviates: subject 9, secondary aplastic anemia, TPA 0.25 mg×2.

For `CCCCCCCCCCCCCC(=O)O[C@@H]1[C@@H](C)[C@@]2(O)[C@@H](C=C(CO)C[C@]3(O)C(=O)C(C)=C[C@@H]23)[C@@H]2C(C)(C)[C@]12OC(C)=O` [TPA, Phorbol 12-Myristate-13-Acetate], in data set [1] (setting [4]), the “Bone marrow myeloblast+promyelocyte after TPA treatment” value came out at 17%. Further, the “Hb after TPA treatment” value in data set [1] (setting [4]) worked out at 66 g/L. Further, the “WBC after TPA treatment” value in data set [1] (setting [5]) stood at 1.9e+09 L⁻¹. For the same compound, in data set [1] (setting [5]), the treatment termination entry is listed as “Due to severe anemia, the TPA treatment was terminated”. The “Bone marrow Myeloblast and promyelocyte, early in TPA treatment” value in data set [1] (subject 10, CML, 0.25 mg TPA once) is given as 9%. Also, the “myeloblast, promyelocyte, myelocyte” value in data set [1] (subject 10, CML, TPA 0.25 mg once, fifth day) was “completely disappeared”. In addition, in data set [2] (after TPA treatment), the “tumor cell differentiation (pathological studies)” value is “the tumor cells were differentiated”. Also, the “inhibition of tumor growth” value in data set [2] (i.p. 50 μg/kg daily for 7 days) is given as 41.7%; in data set [2] (i.p. 100 μg/kg daily for 7 days), 54.8%; in data set [2] (i.p. 200 μg/kg daily for 7 days), 30.4%; in data set [2] (locally at tumor site, 50 μg/kg daily for 7 days), 35.5%; in data set [2] (locally at tumor site, 100 μg/kg daily for 7 days), 49.3%; in data set [2] (locally at tumor site, 200 μg/kg daily for 7 days), 59.2%. In addition, the “mouse skin cancer promotion” value in data set [3] (Chemsyn product brochure) is “extremely potent mouse skin cancer promoter”. For the same compound, the tumor promotion result in data set [3] (Merck Index, 11th Edition) is recorded as “co-carcinogen or tumor promoter”.

The values are drawn from patent US6063814A, “Phorbol esters as anti-neoplastic and white blood cell elevating agents” (priority 1997, dated 2000).
